From PubChem BioAssay AID248 (DTP/NCI, 2004)
Where “and” joins values, the source holds several entries; their conditions need not be identical. Equal values may be shown once. Toxic doses and inconclusive results are not listed. Rule as the data show it: active = T/C of 150% or more; inactive = T/C below 125%.

Tested on: L1210 leukemia ip in BDF1 mice, survival T/C
Test: NCI In Vivo Anticancer Drug Screen. Data for tumor model L1210 Leukemia (intraperitoneal) in B6D2F1 (BDF1) mice
Settings: endpoint: mean survival time, higher = longer survival
Summary of the method: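 Ratio derived from survival: compound-dosed mice over vehicle-dosed mice, all bearing a transplantable tumor.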

[1] = dose: 100.0 mg/kg/injection, schedule: Q01DX009 (ip), vehicle: Klucel (hydroxypropylcellulose) (HPC)
[2] = dose: 100.0 mg/kg/injection, schedule: Q04DX003 (ip), vehicle: Klucel (hydroxypropylcellulose) (HPC)
[3] = dose: 200.0 mg/kg/injection, schedule: Q01DX009 (ip), vehicle: Klucel (hydroxypropylcellulose) (HPC)
[4] = dose: 200.0 mg/kg/injection, schedule: Q04DX003 (ip), vehicle: Klucel (hydroxypropylcellulose) (HPC)
[5] = dose: 400.0 mg/kg/injection, schedule: Q01DX009 (ip), vehicle: Klucel (hydroxypropylcellulose) (HPC)
[6] = dose: 400.0 mg/kg/injection, schedule: Q04DX003 (ip), vehicle: Klucel (hydroxypropylcellulose) (HPC)
[7] = dose: 100.0 mg/kg/injection, schedule: Q01DX001 (ip), vehicle: saline
[8] = dose: 200.0 mg/kg/injection, schedule: Q01DX001 (ip), vehicle: saline
[9] = dose: 400.0 mg/kg/injection, schedule: Q01DX001 (ip), vehicle: saline
[10] = dose: 50.0 mg/kg/injection, schedule: Q01DX001 (ip), vehicle: saline
[11] = dose: 100.0 mg/kg/injection, schedule: Q01DX009 (ip), vehicle: other

Measured: T/C

CN(C)C(=O)C1(c2ccc(Cl)cc2)CCN(CCCC(=O)c2ccc(F)cc2)CC1
inactive: dose: 12.5 mg/kg/injection, schedule: Q01DX009 (ip), vehicle: Klucel (hydroxypropylcellulose) (HPC) 94 % of control | dose: 25.0 mg/kg/injection, schedule: Q01DX009 (ip), vehicle: Klucel (hydroxypropylcellulose) (HPC) 94 % of control | dose: 25.0 mg/kg/injection, schedule: Q04DX003 (ip), vehicle: Klucel (hydroxypropylcellulose) (HPC) 121 % of control | dose: 50.0 mg/kg/injection, schedule: Q01DX009 (ip), vehicle: Klucel (hydroxypropylcellulose) (HPC) 100 % of control | dose: 50.0 mg/kg/injection, schedule: Q04DX003 (ip), vehicle: Klucel (hydroxypropylcellulose) (HPC) 106 % of control | [1] 111 % of control | [2] 116 % of control | [3] 96 % of control | [4] 116 % of control

O=NN(CCCl)C(=O)NC(=O)NCCCl
inactive: dose: 1.0 mg/kg/injection, schedule: Q01DX001 (ip), vehicle: carboxymethylcellulose (CMC) 112 % of control | dose: 2.0 mg/kg/injection, schedule: Q01DX001 (ip), vehicle: carboxymethylcellulose (CMC) 118 % of control | dose: 4.0 mg/kg/injection, schedule: Q01DX001 (ip), vehicle: carboxymethylcellulose (CMC) 122 % of control | dose: 18.0 mg/kg/injection, schedule: Q01DX001 (ip), vehicle: carboxymethylcellulose (CMC) 119 % of control

CCCCOc1ccc(OC(=O)Nc2cccc(C(C)=O)c2)cc1
inactive: [1] 108 % of control | [3] 96 % of control | [5] 96 % of control

Cc1noc(C)c1[N+](=O)[O-]
inactive: dose: 75.0 mg/kg/injection, schedule: Q01DX009 (ip), vehicle: saline 97 % of control | dose: 150.0 mg/kg/injection, schedule: Q01DX009 (ip), vehicle: saline 94 % of control | dose: 300.0 mg/kg/injection, schedule: Q01DX009 (ip), vehicle: saline 101 % of control

CC1(C)Cc2cccc(OC(=O)NO)c2O1
inactive: dose: 12.5 mg/kg/injection, schedule: Q01DX001 (ip), vehicle: Klucel (hydroxypropylcellulose) (HPC) 100 % of control | dose: 25.0 mg/kg/injection, schedule: Q01DX001 (ip), vehicle: Klucel (hydroxypropylcellulose) (HPC) 96 % of control | dose: 50.0 mg/kg/injection, schedule: Q01DX001 (ip), vehicle: Klucel (hydroxypropylcellulose) (HPC) 96 % of control

COc1ccc(C(c2ccccc2)C(CO)CO)cc1 (stereo unspecified)
inactive: dose: 75.0 mg/kg/injection, schedule: Q04DX002 (ip), vehicle: Klucel (hydroxypropylcellulose) (HPC) 90 % of control | dose: 150.0 mg/kg/injection, schedule: Q04DX002 (ip), vehicle: Klucel (hydroxypropylcellulose) (HPC) 93 % of control | dose: 300.0 mg/kg/injection, schedule: Q04DX002 (ip), vehicle: Klucel (hydroxypropylcellulose) (HPC) 87 % of control

O=C1c2ccccc2C(=O)C1c1ccccc1
inactive: [2] 102 % of control | [4] 104 % of control | [6] 106 % of control

CCn1c(=O)sc2cc(Cl)ccc21
inactive: [7] 102 % of control | [8] 98 % of control | [9] 108 % of control

Cc1cccc(NC(=O)Oc2ccc(-c3ccccc3)cc2)c1
inactive: [1] 98 % of control | dose: 100.0 mg/kg/injection, schedule: Q04DX002 (ip), vehicle: Klucel (hydroxypropylcellulose) (HPC) 95 % of control | [3] 97 % of control | dose: 200.0 mg/kg/injection, schedule: Q04DX002 (ip), vehicle: Klucel (hydroxypropylcellulose) (HPC) 88 % of control | [5] 97 % of control | dose: 400.0 mg/kg/injection, schedule: Q04DX002 (ip), vehicle: Klucel (hydroxypropylcellulose) (HPC) 88 % of control

CCOC(=O)c1nc(N)[nH]c(=O)c1CCCCc1ccccc1
inactive: dose: 150.0 mg/kg/injection, schedule: Q01DX001 (ip), vehicle: saline with Tween-80 87 % of control | dose: 300.0 mg/kg/injection, schedule: Q01DX001 (ip), vehicle: saline with Tween-80 89 % of control

CCCOP(=O)(CCl)OCCC
inactive: dose: 100.0 mg/kg/injection, schedule: Q04DX003 (ip), vehicle: saline 101 % of control | dose: 200.0 mg/kg/injection, schedule: Q04DX003 (ip), vehicle: saline 104 % of control | dose: 400.0 mg/kg/injection, schedule: Q04DX003 (ip), vehicle: saline 101 % of control

Cc1cc(C)c(C)c(Br)c1C
inactive: [1] 92 % of control | [2] 104 % of control | [3] 92 % of control | [4] 112 % of control | [5] 86 % of control | [6] 101 % of control

O=c1cc(Nc2cccc3cc4ccccc4cc23)[nH]c(=O)[nH]1
inactive: dose: 38.0 mg/kg/injection, schedule: Q01DX001 (ip), vehicle: Klucel (hydroxypropylcellulose) (HPC) 93 % of control | dose: 75.0 mg/kg/injection, schedule: Q01DX001 (ip), vehicle: Klucel (hydroxypropylcellulose) (HPC) 93 % of control | dose: 150.0 mg/kg/injection, schedule: Q01DX001 (ip), vehicle: Klucel (hydroxypropylcellulose) (HPC) 90 % of control

C1CCC2(CC1)NN2
inactive: dose: 50.0 mg/kg/injection, schedule: Q01DX001 (ip), vehicle: water 101 % of control | dose: 100.0 mg/kg/injection, schedule: Q01DX001 (ip), vehicle: water 104 % of control | dose: 200.0 mg/kg/injection, schedule: Q01DX001 (ip), vehicle: water 98 % of control | dose: 400.0 mg/kg/injection, schedule: Q01DX001 (ip), vehicle: water 103 % of control

CCOC1CCC2C(CCC(/C=C/c3ccc(O)c4ncccc34)N2C)C1 (stereo unspecified)
inactive: dose: 21.0 mg/kg/injection, schedule: Q01DX015 (ip), vehicle: saline 113 % of control | dose: 36.0 mg/kg/injection, schedule: Q01DX015 (ip), vehicle: saline 111 % of control | dose: 88.8 mg/kg/injection, schedule: Q01DX001 (ip), vehicle: saline 103 % of control and 116 % of control | [7] 115 % of control | dose: 100.0 mg/kg/injection, schedule: Q01DX015 (ip), vehicle: saline 93 % of control | dose: 133.4 mg/kg/injection, schedule: Q01DX001 (ip), vehicle: saline 108 % of control and 116 % of control and 121 % of control | dose: 300.0 mg/kg/injection, schedule: Q01DX001 (ip), vehicle: saline 116 % of control and 121 % of control

CC1(C)OC2OC(COC(=O)c3ccccc3)C(=O)C2O1 (stereo unspecified)
inactive: [10] 101 % of control | [7] 106 % of control | [8] 101 % of control | [9] 98 % of control

COc1ccc(O)c(Br)c1
inactive: [11] 97 % of control | dose: 100.0 mg/kg/injection, schedule: Q04DX003 (ip), vehicle: other 94 % of control | dose: 200.0 mg/kg/injection, schedule: Q01DX009 (ip), vehicle: other 103 % of control | dose: 200.0 mg/kg/injection, schedule: Q04DX003 (ip), vehicle: other 96 % of control | dose: 400.0 mg/kg/injection, schedule: Q04DX003 (ip), vehicle: other 92 % of control

O=C1c2cccc(Cl)c2C(=O)c2c(NCCO)cccc21
inactive: dose: 100.0 mg/kg/injection, schedule: Q01DX001 (ip), vehicle: Klucel (hydroxypropylcellulose) (HPC) 96 % of control | dose: 200.0 mg/kg/injection, schedule: Q01DX001 (ip), vehicle: Klucel (hydroxypropylcellulose) (HPC) 101 % of control | dose: 400.0 mg/kg/injection, schedule: Q01DX001 (ip), vehicle: Klucel (hydroxypropylcellulose) (HPC) 97 % of control

CN(C)c1ccc(/C=N\NC(=O)CCCC(=O)N/N=C/c2ccc(N(C)C)cc2)cc1
inactive: [10] 93 % of control | [7] 96 % of control | [8] 98 % of control | [9] 93 % of control

CCc1ccccc1NC(=O)COc1ccc(Cl)cc1
inactive: [1] 98 % of control | [3] 96 % of control | [5] 91 % of control

COc1ccc(C=Nc2cccc(O)c2)cc1
inactive: dose: 100.0 mg/kg/injection, schedule: Q01DX001 (ip), vehicle: carboxymethylcellulose (CMC) 95 % of control | dose: 200.0 mg/kg/injection, schedule: Q01DX001 (ip), vehicle: carboxymethylcellulose (CMC) 95 % of control | dose: 400.0 mg/kg/injection, schedule: Q01DX001 (ip), vehicle: carboxymethylcellulose (CMC) 92 % of control

NC(CSC1(c2ccc(Cl)cc2)c2ccccc2-c2ccccc21)C(=O)O (stereo unspecified)
inactive: dose: 1.56 mg/kg/injection, schedule: Q01DX009 (ip), vehicle: other 98 % of control | dose: 3.12 mg/kg/injection, schedule: Q01DX009 (ip), vehicle: other 106 % of control | dose: 6.25 mg/kg/injection, schedule: Q01DX009 (ip), vehicle: other 100 % of control | dose: 12.5 mg/kg/injection, schedule: Q01DX009 (ip), vehicle: other 98 % of control and 105 % of control | dose: 25.0 mg/kg/injection, schedule: Q01DX009 (ip), vehicle: other 95 % of control | dose: 50.0 mg/kg/injection, schedule: Q01DX009 (ip), vehicle: other 100 % of control | [11] 97 % of control
